# Measured values published in PMC10111022, “Comparison of pharmacological inhibitors of lysine-specific demethylase 1 in glioblastoma stem cells reveals inhibitor-specific efficacy profiles” (Frontiers in Neurology, 2023).
# Experiments:
# MDA-GSC lines [1] = experiment: Cell viability across the panel of nine MDA-GSC lines; assay type: cell-based, Human; conditions: many/several MDA-GSC lines, dose response curves Figure 2
# Method: (§1) MDA-GSCs were plated at 50,000 cells/well into 12-well plates at and allowed to grow for 5 days until neurospheres were formed. The cells were then treated with either TCP, GSK-LSD1, or RN-1 at various concentrations for 5 days. Next, the cells were collected and neurospheres were dissociated with Accutase (BioLegend; San Diego, CA). Cell viability was determined using a trypan dye exclusion assay and read with the Vi-Cell XR Cell Viability Analyzer (Beckman Coulter; Brea, CA). NHAs were plated at 50,000 cells/well into 12-well plates and allowed to adhere overnight. The following day, NHAs were treated with the LSD1 inhibitors. After 5 days, the cells were detached using TrypLE and assessed with the trypan blue dye exclusion assay.
# (§2) The alamarBlue cell viability (Bio-Rad; Hercules, CA) was performed on the MDA-GSCs according to the manufacturer’s protocol. The cells were plated at 5,000 cell/well into a 96-well plate and allowed to grow for 5 days. After 5 days, the alamarBlue reagent was added and fluorescence was measured with the Synergy 2 (BioTek Instruments; Winooski, VT) plate reader according to the manufacturer’s protocol.
# brain tissue = experiment: qPCR of resistance-related genes in brain tissue of treated xenograft mouse; assay type: in vivo; conditions: treated mouse vs control mouse after succumbing to tumor burden
# Method: (§3) Total RNA was extracted using RNeasy Plus Mini Kit (Qiagen; Hilden, Germany) following the manufacturer’s protocol. cDNA was synthesized with the iScript cDNA synthesis kit (Bio-Rad; Hercules, CA), qPCR was performed using Forget-Me-Not EvaGreen qPCR kit (Biotium; Fremont, CA), and samples were analyzed with the LightCycler96 (Roche; Basel, Switzerland). Cq values were normalized to PPIA and reported as relative fold change from untreated control.
# We then measured the gene expression of the candidate gene set in brain tissue of a mouse treated with GSK-LSD1 compared to a control mouse after they succumbed to tumor burden. […] Finally, we assessed the presence of this gene set in patient data acquired from TCGA ([17], [18]). In a dataset of glioblastoma patient samples, LSD1 expression has an inverse relationship with the genes that correlate with resistance (Figures 6H,I). We then assessed the correlation between resistance related gene expression and GBM subtypes using TCGA (Figure 6J). From this analysis, we find that the mesenchymal subtype has an increased expression of HKDC1 and RAB3IL1 compared to classical and proneural. […] Overall, our established gene set may predict resistance to LSD1 inhibition and is concordant across in vitro experiments, in vivo studies, and is expressed in a LSD1 dependent manner in GBM patients.
# MDA-GSC 20 = experiment: Cell viability dose response (IC50), MDA-GSC 20; assay type: cell-based; conditions: Homo sapiens, mean of three independent experiments
# Method: as §1, §2
# MDA-GSC lines [2] = experiment: Cell proliferation of MDA-GSCs tracked over 5 days; assay type: cell-based, Human; conditions: 400 μM, after 5 days; all MDA-GSC lines apart from MDA-GSC311
# Method: as §2
# Figure 3 Effects of GSK-LSD1 on GSCs cell proliferation and neurosphere formation. (A–I) Cell proliferation of MDA-GSCs was tracked over 5 days after treatment with GSK-LSD1 at 400 μM. Day five data was analyzed with a student’s t-test. ns = p > 0.05, *p ≤ 0.05, **p ≤ 0.01, ***p ≤ 0.001, ****p ≤ 0.0001. (J) Bar graphs showing the number of neurospheres formed by MDA-GSCs after treatment with GSK-LSD1. Grouped data was analyzed using a two-way ANOVA with the Šídák multiple comparisons test. ns = p > 0.05, ***p ≤ 0.001, ****p ≤ 0.0001.
# MDA-GSC7-2 = experiment: qPCR of resistance-related genes, MDA-GSC7-2; assay type: cell-based, Human; conditions: MDA-GSC7-2 (sensitive)
# Method: as §3
# MDA-GSC 6–27 = experiment: Cell viability dose response (IC50), MDA-GSC 6–27; assay type: cell-based; conditions: Homo sapiens, mean of three independent experiments
# Method: as §1, §2
# MDA-GSC20 = experiment: qPCR of resistance-related genes, MDA-GSC20; assay type: cell-based, Human; conditions: MDA-GSC20 (resistant)
# Method: as §3
# MDA-GSC8-11 = experiment: qPCR of resistance-related genes, MDA-GSC8-11; assay type: cell-based, Human; conditions: MDA-GSC8-11 (resistant)
# Method: as §3
# MDA-GSC 7–2 = experiment: Cell viability dose response (IC50), MDA-GSC 7–2; assay type: cell-based; conditions: Homo sapiens, mean of three independent experiments
# Method: as §1, §2
# [3] = system: MDA-GSC20 orthotopic xenograft; experiment: Intracranial orthotopic xenograft model, bioluminescence tumor burden and survival; assay type: in vivo, athymic nude mice
# Method: All animal experiments were approved by the University of Texas MD Anderson Cancer Center Institutional Animal Care and Use Committee (IACUC) under protocol 638 (P.I. Chandra). An equal number of male and female athymic nude mice aged 4–6 weeks old were bolted with guide screws by MD Anderson’s Brain Tumor Center Animal Core as previously described ([16]). Ketamine/xylazine was administered for anesthesia and buprenorphine or buprenorphine sustained-release (SR) was administered for analgesia during and after the surgery. MDA-GSC20 luciferase labelled cells were resuspended in PBS and 500,000 cells were intracranially implanted into each mouse via guide screw. To monitor tumor engraftment and tumor progression throughout treatment, each mouse was imaged weekly using an IVIS 200 imager (Perkin Elmer; Waltham, MA). Mice were anesthetized via inhalation of isoflurane and injected with 200 μL of D-Luciferin (GoldBio; St Louis, MO) subcutaneously. Bioluminescence signal in the mice was read and reported as photons/s.
# Once confirmation of intracranial tumor engraftment at 7 days post-engraftment, the mice were equally randomized into groups to receive either GSK-LSD1 or the vehicle control. The mice received GSK-LSD1 1 mg/kg diluted in DMSO and PBS (5 and 95%, respectively) via intraperitoneal injection (200 μL/mouse) while the control mice received the untreated vehicle in parallel. In accordance with the approved IACUC protocol (No: 638-RN03) at MD Anderson Cancer Center, treatment continued until the mice succumbed to tumor burden and were found in a moribund condition as determined by neurological impairment (hydrocephalus, seizures, inactivity, and/or ataxia) or morbidity (hunched posture or weight loss). At this time mice were euthanized by both carbon dioxide exposure and cervical dislocation. […]
smiles,measurement,setting,value
c1ccc([C@@H]2C[C@H]2NC2CCNCC2)cc1 [GSK-LSD1],concentrations at which MDA-GSC viability was reduced,MDA-GSC lines [1],250 to 750 µM
same,expression of candidate gene set in brain tissue,brain tissue,"three of the four genes, except for FAM213A, were upregulated"
same,IC50,MDA-GSC 20,> 750 µM
same,effect on MDA-GSC proliferation,MDA-GSC lines [2],Consistent anti-proliferative effects
same,"expression of resistance-related genes (FTH1, RAB39B, HKDC1, FAM213A)",MDA-GSC7-2,inappreciable effects
same,IC50,MDA-GSC 6–27,598 µM
same,"expression of resistance-related genes (FTH1, RAB39B, HKDC1, FAM213A)",MDA-GSC20,increase in all four genes
same,expression of resistance-related genes,MDA-GSC8-11,increase in the same two gene
same,IC50,MDA-GSC 7–2,518 µM
same,rate of tumor progression,"[3]; 1 mg/kg intraperitoneal, week 11, vs control mice",lower rate of tumor progression
same,tumor burden (bioluminescence),"[3]; 1 mg/kg intraperitoneal, week seven, vs control",strong regression in tumor burden
same,overall survival,[3]; continued dosing beyond week 11,ineffective to improve overall survival
